The source made the active and inactive calls.
How the values were obtained:
[1] = viability inhibitors of stage V gametocytes – luminescence, dose response (AID 1117278); format: functional, cell-based;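 note: gametocytes exposed to compound for 24 hours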
[2] = viability loss in human Jurkat cells – cell-based, luminescence, cytotoxicity control for P. falciparum gametocyte viability project, dose response (AID 1117277); format: functional;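 note: potency reflects loss of cellular ATP meaning fewer viable cells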
Vero [3] = assay: mammalian cell viability reduction – secondary assay, cytotoxicity control for West Nile virus antiviral project, dose response (AID 1650); format: functional; conditions: Chlorocebus sabaeus
[4] = luciferase reporter signal suppression in cells – H4 neuroglioma cells, luminescence, dose response (AID 1990); format: functional, cell-based
[5] = Luminescence Cell-Based Dose Response HTS to Identify Inhibitors of 5'UTR Stem-Loop Driven Prion Protein mRNA Translation in H4 Neuroglioblastoma Cells. [Related pubchem assays: 1827 (Project Summary), 1813 (Primary HTS)]; format: functional
[6] = alpha-synuclein stem-loop luciferase translation blockers – H4 neuroglioma cells, luminescence, confirmation (AID 1988); format: functional, cell-based
Protein skinhead-1 = target: T1, Protein skinhead-1 (Caenorhabditis elegans, UniProt P34707); format: functional
T1 sequence (P34707 whole entry): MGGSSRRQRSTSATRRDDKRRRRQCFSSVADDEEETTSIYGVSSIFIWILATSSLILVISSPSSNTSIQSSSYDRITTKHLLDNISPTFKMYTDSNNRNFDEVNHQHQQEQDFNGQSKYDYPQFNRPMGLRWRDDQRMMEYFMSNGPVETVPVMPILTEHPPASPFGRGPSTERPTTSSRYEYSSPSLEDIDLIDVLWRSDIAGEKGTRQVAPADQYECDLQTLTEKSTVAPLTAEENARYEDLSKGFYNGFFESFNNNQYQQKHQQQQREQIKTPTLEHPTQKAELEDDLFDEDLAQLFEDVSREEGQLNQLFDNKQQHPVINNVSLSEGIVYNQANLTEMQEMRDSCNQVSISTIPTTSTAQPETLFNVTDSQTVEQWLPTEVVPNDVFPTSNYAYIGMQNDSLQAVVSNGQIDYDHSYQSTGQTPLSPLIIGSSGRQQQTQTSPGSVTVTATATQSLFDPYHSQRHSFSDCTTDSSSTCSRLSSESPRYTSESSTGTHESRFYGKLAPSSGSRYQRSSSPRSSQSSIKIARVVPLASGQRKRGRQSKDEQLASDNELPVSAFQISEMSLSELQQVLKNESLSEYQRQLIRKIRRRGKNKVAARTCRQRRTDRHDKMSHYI

[7] = toxicity toward HepG2 liver cells – cell-based, plate reader, cherry-pick, antagonist series, cytotoxicity control, dose response (AID 743416); format: functional
[8] = blockers of bursicon-stimulated LGR2 cAMP reporter – cell-based, HEK293, CRE-luciferase reporter, cherry pick, set 2, dose response (AID 743343); format: functional;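 note: transfected cells were stimulated with diluted bursicon conditioned medium after compound addition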
[9] = blockade of melanocortin 4 receptor signaling – cell-based, plate reader, cherry pick, counter-screen for LGR2 antagonist project, dose response (AID 743444); format: functional;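 note: transfected HEK 293 cells stimulated with alpha-MSH peptide; potency of inhibitors of the alpha-MSH evoked signal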
[10] = viability loss in HEK293 cells – cell-based, plate reader, cherry-picked samples, cytotoxicity control, dose response (AID 743446); format: functional
[11] = target: T2, COUP transcription factor 2 (Homo sapiens, UniProt P24468); assay: Luminescence-based cell-based high throughput dose response assay to identify inhibitors of COUP-TFII (NR2F2).; format: functional;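 note: HEK293 cells transiently cotransfected with COUP-TFII expression vector and reporter; luciferase reporter luminescence driven by COUP-TFII from the pX2-168 reporter plasmid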
T2 sequence (P24468 whole entry): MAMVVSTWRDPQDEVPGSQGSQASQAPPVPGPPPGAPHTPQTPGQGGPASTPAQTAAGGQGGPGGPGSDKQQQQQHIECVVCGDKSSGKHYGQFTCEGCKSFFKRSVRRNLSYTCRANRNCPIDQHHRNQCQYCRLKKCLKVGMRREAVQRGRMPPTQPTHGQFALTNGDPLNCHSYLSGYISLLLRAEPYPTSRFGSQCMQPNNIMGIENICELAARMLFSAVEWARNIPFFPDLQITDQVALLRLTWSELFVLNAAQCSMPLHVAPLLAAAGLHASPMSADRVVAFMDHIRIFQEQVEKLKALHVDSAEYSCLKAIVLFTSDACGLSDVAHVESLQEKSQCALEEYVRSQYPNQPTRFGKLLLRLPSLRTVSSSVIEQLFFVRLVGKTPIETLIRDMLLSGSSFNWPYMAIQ

[12] = target: T3, Replicative DNA helicase DnaB (Mycobacterium tuberculosis, UniProt P9WMR3); assay: DnaB intein splicing inhibitors, dose response, biochemical, cell-free fluorescence (AID 449749); format: functional
T3 sequence (P9WMR3 whole entry): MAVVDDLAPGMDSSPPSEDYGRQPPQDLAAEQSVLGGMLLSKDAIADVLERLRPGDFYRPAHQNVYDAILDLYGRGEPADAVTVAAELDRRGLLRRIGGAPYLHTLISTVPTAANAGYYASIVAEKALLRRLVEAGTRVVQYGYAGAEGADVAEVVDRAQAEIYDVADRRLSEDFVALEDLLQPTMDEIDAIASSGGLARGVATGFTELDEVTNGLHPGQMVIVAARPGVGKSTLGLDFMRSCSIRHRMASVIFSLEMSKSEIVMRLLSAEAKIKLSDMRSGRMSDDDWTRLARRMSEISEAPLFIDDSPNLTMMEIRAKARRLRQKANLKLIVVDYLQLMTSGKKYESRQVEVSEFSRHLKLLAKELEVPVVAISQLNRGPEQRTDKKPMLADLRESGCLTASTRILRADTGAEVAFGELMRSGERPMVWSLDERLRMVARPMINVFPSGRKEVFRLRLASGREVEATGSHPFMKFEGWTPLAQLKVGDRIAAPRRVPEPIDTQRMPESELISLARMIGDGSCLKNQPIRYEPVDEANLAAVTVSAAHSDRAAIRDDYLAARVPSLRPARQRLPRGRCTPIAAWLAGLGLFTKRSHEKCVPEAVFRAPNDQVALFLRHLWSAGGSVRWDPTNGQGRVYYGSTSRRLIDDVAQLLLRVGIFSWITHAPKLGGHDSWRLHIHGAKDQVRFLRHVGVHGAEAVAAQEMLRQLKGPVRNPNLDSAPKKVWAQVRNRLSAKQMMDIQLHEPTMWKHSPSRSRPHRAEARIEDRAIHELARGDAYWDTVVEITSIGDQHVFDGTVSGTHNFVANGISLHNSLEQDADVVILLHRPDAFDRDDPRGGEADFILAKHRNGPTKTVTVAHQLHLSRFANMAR

Protein RecA = target: T4, Protein RecA (Mycobacterium tuberculosis, UniProt P9WHJ3); assay: Fluorescence Cell-Free Homogeneous Dose Retest to Identify Inhibitors of RecA-Intein Splicing Activity. [Related pubchem assays (depositor defined):AID2097, AID2223, AID489010, AID492950]; format: functional
T4 sequence (P9WHJ3 whole entry): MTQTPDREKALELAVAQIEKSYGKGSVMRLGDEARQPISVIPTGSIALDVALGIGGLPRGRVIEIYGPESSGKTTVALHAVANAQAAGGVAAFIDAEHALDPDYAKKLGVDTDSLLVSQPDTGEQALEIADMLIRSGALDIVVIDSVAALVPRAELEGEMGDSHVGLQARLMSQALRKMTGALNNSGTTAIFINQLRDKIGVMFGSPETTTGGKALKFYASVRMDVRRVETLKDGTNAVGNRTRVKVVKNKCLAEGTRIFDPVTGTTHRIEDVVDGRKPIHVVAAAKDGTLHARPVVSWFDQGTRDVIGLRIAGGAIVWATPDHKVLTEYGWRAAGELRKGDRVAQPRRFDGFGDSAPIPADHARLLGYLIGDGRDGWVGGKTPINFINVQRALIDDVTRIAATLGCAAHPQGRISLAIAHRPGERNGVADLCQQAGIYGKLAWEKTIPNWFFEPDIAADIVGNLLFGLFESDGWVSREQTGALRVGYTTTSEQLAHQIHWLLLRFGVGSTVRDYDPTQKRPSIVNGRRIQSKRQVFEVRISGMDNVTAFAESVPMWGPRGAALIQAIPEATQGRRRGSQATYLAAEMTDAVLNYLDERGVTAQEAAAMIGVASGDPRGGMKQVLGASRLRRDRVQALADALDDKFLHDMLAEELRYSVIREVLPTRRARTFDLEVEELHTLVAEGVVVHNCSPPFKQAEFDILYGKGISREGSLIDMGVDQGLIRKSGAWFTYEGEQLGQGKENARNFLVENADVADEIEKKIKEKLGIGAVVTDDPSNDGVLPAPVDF

Vero [13] = assay: cells; format: functional; conditions: Chlorocebus sabaeus
[14] = reduction of Shn3 3'UTR-driven luciferase in osteoblasts – cell-based, Clone20 osteoblasts, firefly luciferase, cherry-picked, dose response (AID 624132); format: functional;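 note: firefly luciferase luminescence from reporter carrying the Shn3 3'UTR in osteoblasts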
[15] = loss of viability in HepG2 cells – cell-based, CellTiter-Glo, cherry-picked, cytotoxicity control for Shn3 inhibitor project, dose response (AID 624134); format: functional
[16] = non-specific 3'UTR reporter inhibition in Clone20-Shn3RL – cell-based, Renilla luciferase, cherry-picked, counter-screen for Shn3 inhibitor project, dose response (AID 624133); format: functional
[17] = Fluorescence-based cell-based high throughput dose response assay for inhibitors of the interaction of nucleotide-binding oligomerization domain containing 2 (NOD2) and the receptor-interacting serine-threonine kinase 2 (RIPK2).; format: functional; conditions: Homo sapiens
Paired box protein Pax-8 = Paired box protein Pax-8 (Homo sapiens, UniProt Q06710); assay: PAX8 transcriptional activity inhibition in RMG-I – RMG-I cells, luciferase, cherry-pick, dose response (AID 687027); format: functional, cell-based;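 note: luciferase reporter driven by Pax8 target thyroperoxidase promoter measured by SteadyGlo luminescence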
[18] = A549 cell cytotoxicity, dose response, cytotoxicity control, plate reader, cherry-pick, antagonist series (AID 743412); format: functional, cell-based
[19] = A2780 cell killing – plate reader, dry powder samples, cytotoxicity control, dose response (AID 743046); format: functional, cell-based
[20] = OVCAR-3 cell viability loss – plate reader, dry powder samples, PAX8 inhibitor project, dose response (AID 743044); format: functional, cell-based
[21] = OVCAR8 cell viability loss – plate reader, dry powder samples, PAX8 project, dose response (AID 743197); format: functional, cell-based; conditions: OVCAR-8
Kallikrein-7 = Kallikrein-7 (Homo sapiens, UniProt P49862); assay: Fluorescence Intensity-based biochemical primary high throughput dose response assay to identify activators of kallikrein-7 (K7) zymogen.
[22] = CellTiter-Glo luminescence survival assay, SW480 colon tumor line, concentration-response curve, half-maximal inhibitory concentration (AID 1117338); format: functional
[23] = RKO cell viability reduction, dose response, CellTiter-Glo luminescence (AID 1117322); format: functional
[24] = cytotoxicity toward HCT116 cells – cell-based, CellTiter-Glo luminescence, IC50, dose response (AID 1117332); format: functional; conditions: HCT-116
[25] = SNU-C1 cell viability reduction, dose response, CellTiter-Glo luminescence (AID 1117323); format: functional, cell-based
[26] = cytotoxicity toward Colo320 cells – cell-based, CellTiter-Glo luminescence, IC50, dose response (AID 1117334); format: functional; conditions: COLO 320
[27] = cytotoxicity toward HT-29 cells – cell-based, CellTiter-Glo luminescence, IC50, dose response (AID 1117330); format: functional
[28] = Reduced DLD-1 viability, concentration-response, CellTiter-Glo luminescence (AID 1117352); format: functional

Chain of Paired box protein Pax-8 (Q06710 whole entry): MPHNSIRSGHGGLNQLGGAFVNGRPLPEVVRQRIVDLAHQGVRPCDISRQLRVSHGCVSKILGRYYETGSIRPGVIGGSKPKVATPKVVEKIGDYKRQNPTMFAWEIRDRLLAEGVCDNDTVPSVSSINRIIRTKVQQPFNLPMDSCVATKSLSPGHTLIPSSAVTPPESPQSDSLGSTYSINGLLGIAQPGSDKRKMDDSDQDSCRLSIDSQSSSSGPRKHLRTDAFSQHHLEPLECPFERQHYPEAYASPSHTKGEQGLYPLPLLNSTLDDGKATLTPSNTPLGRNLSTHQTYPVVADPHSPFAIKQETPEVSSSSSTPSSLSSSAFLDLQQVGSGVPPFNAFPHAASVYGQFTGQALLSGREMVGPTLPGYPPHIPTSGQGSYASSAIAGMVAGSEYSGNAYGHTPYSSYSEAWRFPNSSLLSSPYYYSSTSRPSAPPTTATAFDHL
Chain of Kallikrein-7 (P49862 whole entry): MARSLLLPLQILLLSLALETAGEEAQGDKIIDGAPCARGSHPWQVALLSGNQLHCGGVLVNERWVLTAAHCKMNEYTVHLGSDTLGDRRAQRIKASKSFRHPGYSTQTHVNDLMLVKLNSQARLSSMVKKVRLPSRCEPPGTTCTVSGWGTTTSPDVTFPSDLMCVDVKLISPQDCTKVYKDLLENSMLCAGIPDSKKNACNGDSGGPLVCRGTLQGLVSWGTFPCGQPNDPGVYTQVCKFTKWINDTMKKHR

## Cc1ccc(C(=O)N2CCN(S(=O)(=O)c3ccccc3)CC2)cc1
[1]
  IC50: > 109 µM (inactive)
[2]
  IC50: > 83.3 µM (inactive)

## Cc1cccc(-c2cc3nc(C)cc(NCCCN(C)C)n3n2)c1
Vero [3]
  CC50: 64.2 µM (active)

## CCCOc1ccc2cc(-c3ccccn3)c(=O)oc2c1
[4]
  EC50: 2.91 µM (active)
[5]
  EC50: 9.71 µM (active)
[6]
  EC50: 2.83 µM (active)
Protein skinhead-1
  IC50: > 100 µM (inactive)
[7]
  AC50: > 52 µM (inactive)
[8]
  AC50: 1.48 µM (active)
[9]
  AC50: 2 µM (active)
[10]
  AC50: 33.6 µM (active)

## O=C(COC(=O)CSc1ccc2ccccc2c1)NCc1ccc2c(c1)OCO2
[1]
  IC50: > 109 µM (inactive)
[2]
  IC50: > 83.3 µM (inactive)

## Cn1c2ccccc2c(=O)c2cc(C#CC3(O)CCCCC3)ccc21
[11]
  IC50: 12 µM (inactive)

## CCN(CC)CCNC(=O)CSc1c2c(nc3cc(Cl)ccc13)CCCC2
Vero [3]
  CC50: 18.8 µM (active)
[12]
  AC50: 241 µM (active)
Protein RecA
  EC50: 11.8 µM (active)
Vero [13]
  CC50: > 25 µM (active)
[14]
  AC50: 14.9 µM (active)
[15]
  AC50: > 70 µM (inactive)
[16]
  AC50: 25.5 µM (active)

## COc1ccc2nc(Nc3nc(O)cc(CSc4nnnn4-c4ccccc4)n3)nc(C)c2c1
Vero [3]
  CC50: > 100 µM (active)

## O=C1NC2C(O)C(O)C(O)C(O)C2c2cc3c(c(O)c21)OCO3 (stereo not drawn)
[17]
  IC50: 49.8 µM (inactive)
Paired box protein Pax-8
  AC50: < 0.26 µM (active)
[18]
  AC50: 0.358 µM (active)
[7]
  AC50: 0.428 µM (active)
[8]
  AC50: 0.362 µM (active)
[9]
  AC50: 0.372 µM (active)
[10]
  AC50: 0.321 µM (active)

## C[C@H]1CCCCO[C@@H](CN(C)Cc2ccc(C(F)(F)F)cc2)[C@@H](C)CN([C@@H](C)CO)C(=O)c2cc(NC(=O)Cc3ccccc3)ccc2O1
Paired box protein Pax-8
  AC50: 7.94 µM (active)
[19]
  AC50: 963 nM (active)
[20]
  AC50: 11.4 µM (active)
[21]
  AC50: 30.8 µM (active)

## Clc1ccc(-c2cnc3cccnn23)cc1
Kallikrein-7
  EC50: > 69.5 µM (inactive)

## CS(=O)(=O)Cc1cc(N2CCCC2)nc(-c2ccccc2)n1
[1]
  IC50: > 109 µM (inactive)
[2]
  IC50: > 83.3 µM (inactive)

## C[C@@H]1CN([C@H](C)CO)C(=O)Cc2cc(NS(=O)(=O)c3ccc(Cl)cc3)ccc2O[C@@H]1CN(C)Cc1ccc(C(F)(F)F)cc1
[18]
  AC50: 7.62 µM (active)
[7]
  AC50: 10.4 µM (active)
[8]
  AC50: 22.7 µM (active)
[9]
  AC50: 20.2 µM (active)
[10]
  AC50: 15.8 µM (active)

## CN(CCOc1ccc(CC2SC(=O)NC2=O)cc1)c1ccccn1 (stereo not drawn) [ROSIGLITAZONE]
[22]
  IC50: > 20 µM (inactive)
[23]
  IC50: > 20 µM (inactive)
[24]
  IC50: > 20 µM (inactive)
[25]
  IC50: 8.69 µM (inactive)
[26]
  IC50: > 20 µM (inactive)
[27]
  IC50: > 20 µM (inactive)
[28]
  IC50: > 20 µM (inactive)

From ChEMBL document CHEMBL1201862, “PubChem BioAssay data set” (2004)
